# From publication PMC4842925, “Aristolochic acid, a plant extract used in the treatment of pain and linked to Balkan endemic nephropathy, is a regulator of K2P channels” (British Journal of Pharmacology, 2016)
# Substitutions are numbered along the chain they refer to.
# Columns and labels:
# Assay in all cases: whole-cell patch clamp, tsA201 cells
# Format in all cases: cell-based
# hTASK-2 (K2P5.1) [1] = molecular target: T1, hTASK-2 (K2P5.1) (Homo sapiens, UniProt O95279, T108P)
# T1 construct: gene KCNK5; full-length channel in pcDNA3.1, transiently expressed in tsA201 cells; functional dimer
# T1 sequence (O95279 1-499 T108P): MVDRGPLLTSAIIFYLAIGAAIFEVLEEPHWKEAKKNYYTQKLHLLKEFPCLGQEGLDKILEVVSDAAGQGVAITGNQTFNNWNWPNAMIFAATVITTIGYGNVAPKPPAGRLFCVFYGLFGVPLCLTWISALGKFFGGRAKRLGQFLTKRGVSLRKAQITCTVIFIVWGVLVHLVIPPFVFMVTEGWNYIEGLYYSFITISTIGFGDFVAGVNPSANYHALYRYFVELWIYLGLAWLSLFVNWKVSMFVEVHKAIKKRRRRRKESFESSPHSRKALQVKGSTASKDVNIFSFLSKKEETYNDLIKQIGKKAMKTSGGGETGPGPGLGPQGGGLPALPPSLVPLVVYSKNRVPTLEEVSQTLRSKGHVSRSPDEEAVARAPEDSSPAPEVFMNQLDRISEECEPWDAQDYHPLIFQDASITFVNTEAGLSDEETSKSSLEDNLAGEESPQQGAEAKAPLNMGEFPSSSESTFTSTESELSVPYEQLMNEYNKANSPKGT
# hTASK-2 (K2P5.1) [2] = molecular target: T2, hTASK-2 (K2P5.1) (Homo sapiens, UniProt O95279); conditions: activation; pH 7.4; 2.5 mM external K; room temperature
# T2 construct: gene KCNK5; full-length channel in pcDNA3.1, transiently expressed in tsA201 cells; functional dimer
# T2 sequence (O95279 1-499): T1 sequence (O95279 1-499 T108P) with P108T
# hTRESK (K2P18.1) [3] = molecular target: T3, hTRESK (K2P18.1) (Homo sapiens, UniProt Q7Z418, F145A/F352A)
# T3 construct: gene KCNK18; full-length channel in pcDNA3.1, transiently expressed in tsA201 cells; homodimer
# T3 sequence (Q7Z418 1-384 F145A/F352A): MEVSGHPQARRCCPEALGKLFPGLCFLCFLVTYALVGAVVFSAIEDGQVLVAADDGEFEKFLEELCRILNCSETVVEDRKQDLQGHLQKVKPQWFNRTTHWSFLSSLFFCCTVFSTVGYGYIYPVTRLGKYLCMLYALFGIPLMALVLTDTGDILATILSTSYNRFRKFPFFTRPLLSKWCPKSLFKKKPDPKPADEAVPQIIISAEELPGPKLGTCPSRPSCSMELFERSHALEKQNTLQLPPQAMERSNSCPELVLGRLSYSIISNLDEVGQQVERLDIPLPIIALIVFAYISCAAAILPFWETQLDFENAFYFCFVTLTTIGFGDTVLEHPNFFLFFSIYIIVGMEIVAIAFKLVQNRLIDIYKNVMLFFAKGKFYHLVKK
# hTRESK (K2P18.1) [4] = molecular target: T4, hTRESK (K2P18.1) (Homo sapiens, UniProt Q7Z418, S252E/S264E)
# T4 construct: gene KCNK18; full-length channel in pcDNA3.1, transiently expressed in tsA201 cells; homodimer
# T4 sequence (Q7Z418 1-384 S252E/S264E): T3 sequence (Q7Z418 1-384 F145A/F352A) with A145F, S252E, S264E, A352F
# hTASK-2 (K2P5.1) [5] = molecular target: T2, hTASK-2 (K2P5.1); conditions: activation; no effect at 100 μM; pH 7.4; 2.5 mM external K; room temperature
# hTRESK (K2P18.1) [6] = molecular target: T5, hTRESK (K2P18.1) (Homo sapiens, UniProt Q7Z418)
# T5 construct: gene KCNK18; full-length channel in pcDNA3.1, transiently expressed in tsA201 cells; homodimer
# T5 sequence (Q7Z418 1-384): T3 sequence (Q7Z418 1-384 F145A/F352A) with A145F, A352F
# hTRAAK (K2P4.1) = molecular target: T6, hTRAAK (K2P4.1) (Homo sapiens, UniProt Q9NYG8); conditions: authors: little effect; difference current between -40 and -80 mV; pH 7.4; 2.5 mM external K; room temperature
# T6 construct: gene KCNK4; isoform 2 in pcDNA3.1, transiently expressed in tsA201 cells; homodimer
# T6 sequence (Q9NYG8 1-419 isoform Q9NYG8-2): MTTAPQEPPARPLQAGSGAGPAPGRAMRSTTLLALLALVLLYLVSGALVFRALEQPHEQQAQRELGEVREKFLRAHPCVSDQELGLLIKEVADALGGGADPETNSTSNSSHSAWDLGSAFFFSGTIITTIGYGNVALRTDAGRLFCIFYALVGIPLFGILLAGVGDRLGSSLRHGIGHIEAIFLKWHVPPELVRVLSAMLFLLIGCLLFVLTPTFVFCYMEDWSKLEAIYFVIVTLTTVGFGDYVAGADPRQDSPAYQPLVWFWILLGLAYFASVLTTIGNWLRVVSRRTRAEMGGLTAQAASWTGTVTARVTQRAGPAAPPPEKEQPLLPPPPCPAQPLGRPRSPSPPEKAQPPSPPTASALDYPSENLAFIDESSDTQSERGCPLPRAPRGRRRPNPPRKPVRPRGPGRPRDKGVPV
# hTRESK (K2P18.1) [7] = molecular target: T7, hTRESK (K2P18.1) (Homo sapiens, UniProt Q7Z418, S252A/S264A)
# T7 construct: gene KCNK18; full-length channel in pcDNA3.1, transiently expressed in tsA201 cells; homodimer
# T7 sequence (Q7Z418 1-384 S252A/S264A): T3 sequence (Q7Z418 1-384 F145A/F352A) with A145F, S252A, S264A, A352F
# hTREK-2 (K2P10.1) = molecular target: T8, hTREK-2 (K2P10.1) (Homo sapiens, UniProt P57789); conditions: activation; difference current between -40 and -80 mV; pH 7.4; 2.5 mM external K; room temperature
# T8 construct: gene KCNK10; full-length channel in pcDNA3.1, transiently expressed in tsA201 cells; homodimer
# T8 sequence (P57789 1-538): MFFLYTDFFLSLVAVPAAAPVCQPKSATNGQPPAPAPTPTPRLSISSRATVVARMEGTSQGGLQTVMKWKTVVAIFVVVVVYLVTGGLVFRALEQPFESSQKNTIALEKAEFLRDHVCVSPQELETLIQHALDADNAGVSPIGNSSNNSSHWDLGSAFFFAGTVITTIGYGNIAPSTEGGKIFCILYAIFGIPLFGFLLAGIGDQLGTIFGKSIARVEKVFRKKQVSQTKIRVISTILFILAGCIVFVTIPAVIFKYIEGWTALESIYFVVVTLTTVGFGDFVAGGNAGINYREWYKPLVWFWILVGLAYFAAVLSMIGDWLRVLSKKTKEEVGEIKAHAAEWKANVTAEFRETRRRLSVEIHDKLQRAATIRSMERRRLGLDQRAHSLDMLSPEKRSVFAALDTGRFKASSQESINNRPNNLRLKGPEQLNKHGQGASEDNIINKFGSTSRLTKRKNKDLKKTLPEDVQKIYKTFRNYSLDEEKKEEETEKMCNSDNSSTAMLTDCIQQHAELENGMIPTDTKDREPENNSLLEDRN
Structure (SMILES),inhibition at 100 µM (hTASK-2 (K2P5.1) [1]) [%],% enhancement at 100 μM (hTASK-2 (K2P5.1) [2]) [%],inhibition at 100 µM (hTRESK (K2P18.1) [3]) [%],inhibition at 100 µM (hTRESK (K2P18.1) [4]) [%],% enhancement at 300 μM (hTASK-2 (K2P5.1) [5]) [%],IC50 (hTRESK (K2P18.1) [6]) [µM],% enhancement at 100 μM (hTRAAK (K2P4.1)) [%],inhibition at 100 µM (hTRESK (K2P18.1) [7]) [%],% enhancement at 100 μM (hTREK-2 (K2P10.1)) [%]
O=C(O)c1ccccc1Nc1cccc(C(F)(F)F)c1 [Flufenamic acid],15 ± 14,80 ± 31,–,–,–,–,–,–,–
COc1cccc2c1cc([N+](=O)[O-])c1c(C(=O)O)cc3c(c12)OCO3 [Aristolochic acid I],–,–,0,73 ± 5,21 ± 13,13 ± 2,8 ± 5,80 ± 2,44 ± 11
